Entries after “also recorded” stand apart in the source; their conditions may differ.
Tests used:
Type in all cases: cell-based, human
liver cancer cells = experiment: Liver cancer cell death with DGAT1 and DGAT2 inhibitors alone or in combination
Procedure: MHCC97L 6×10^4 12 well plate, treated at 24 hours with 1% FBS DMEM with DGAT1 and DGAT2 inhibitors. Picture taken on day 4.
HEPG2 6×10^4 12 well plate, treated at 24 hours with 1% FBS DMEM with DGAT1 and DGAT2 inhibitors. Picture taken on day 4.
HeG2 8×10^4 12 well plate, treated at 24 hours with 1% FBS DMEM with DGAT1 and DGAT2 inhibitors. Picture taken on day 4.
Huh7 4×10^4 12-well plate, treated at 24 hours with 1% FBS DMEM with DGAT1 and DGAT2 inhibitors. Picture taken on day 4.
Hep3B 6×10^4 12-well plate, treated at 24 hours with 1% FBS DMEM with DGAT1 and DGAT2 inhibitors. Picture taken on day 4.
Huh7 6×10^4 12-well plate, treated at 24 hours with 1% FBS DMEM with DGAT1 and DGAT2 inhibitors. Picture taken on day 4.

GBM cells (U251) = experiment: ROS detection with CellROX Deep Red; conditions: co-treatment (NAC 1 mM; ETO 6 μM) with DGAT1 inhibition
Procedure: (A, B) Transmission electron microscopy (TEM) analysis of the mitochondrial morphology in GBM cells (U251) treated with the DGAT1 inhibitor A-922500 (20 μg/ml) or DGAT2 inhibitor PF-06424439 (20 μg/ml) for 24 hr and shown in a or infected with shRNA-expressing lentivirus against DGAT1 for 48 hr and shown in b. Scale bar, 500 nm. Mitochondria are indicated by red arrows. Mitochondria length and loss of cristae (%) were quantified by ImageJ over 100 mitochondria in each group (mean±SEM). Statistical significance was determined by one-way ANOVA. * P<0.0001. (C, D) Representative fluorescence images of LDs (green) and mitochondria (red) in U251 cells treated with DGAT1 or DGAT2 inhibitor and shown in c or shRNA in (D) as in panels (A, B). […] The percentage of cells with tubular or fragmented mitochondria was quantified by ImageJ in more than 100 cells (mean±SEM). Statistical significance was determined by one-way ANOVA. * P<0.001. […] Lower panels show the quantification of relative basal and maximal OCR change (details please see Methods). […] Basal OCR was determined as OCR before oligomycin subtract OCR after rotenone addition, and maximal OCR was determined as OCR after FCCP subtract OCR after rotenone addition. Statistical significance was determined by one-way ANOVA. * P<0.0001. […] ROS were detected with CellROX Deep Red, and mitochondria were stained with MitoTracker Green. […]

GBM cells = experiment: GBM cell death, trypan blue counting; conditions: for cell death caused by DGAT1 inhibition (rescue): co-treatment with DGAT1 inhibition (A-922500 20 μg/ml, 3 days), U251
[1] = DGAT1 inhibitor in combination with DGAT2 inhibitor

With `N#Cc1ccc(Oc2ccc(/C=C3\SC(=NCCc4ccccn4)NC3=O)cc2F)c(Br)c1` [JNJ DGAT2-A] the “liver cancer cell death” value (liver cancer cells; [1]) was “effective to kill liver cancer cells” and the “liver cancer cell death” value (liver cancer cells; each single inhibitor) was “no ability to induce liver cancer cell death”.
In the case of `CC(=O)N[C@@H](CS)C(=O)O` [NAC, N-acetyl-cysteine], the “ROS caused by DGAT1 inhibition” value (GBM cells (U251)) is reported as “significantly decreased”, the “acylcarnitine-induced GBM cell death” value (GBM cells; NAC 1 mM with acylcarnitines 20 μM, 2 days) is reported as “significantly reduced” and the “cell death caused by DGAT1 inhibition (rescue)” value (GBM cells) is reported as “significantly decreased”.
`Cc1cccc(CC(=O)N2CCc3c2ccc(-c2cn(C)c4ncnc(N)c24)c3F)n1` [GSK2656157] was tested, and the “cell death caused by DGAT1 inhibition (rescue)” value (GBM cells) was “did not exert any rescue effects; also recorded: No rescue effects”.
With `CCCCCCC(=O)CCCCCC/C=C/C[C@@H](O)[C@H](O)[C@@](N)(CO)C(=O)O` [myriocin] the “cell death caused by DGAT1 inhibition (rescue)” value (GBM cells) was “no rescue effects; also recorded: does not rescue cell death”.
For `Cc1cc(=O)oc2c(C=O)c(O)ccc12` [4μ8C], the “cell death caused by DGAT1 inhibition (rescue)” value (GBM cells) was “did not exert any rescue effects; also recorded: No rescue effects”.
In the case of `CCOC(=O)[C@@]1(CCCCCCOc2ccc(Cl)cc2)CO1` [ETO], the “ROS caused by DGAT1 inhibition” value (GBM cells (U251)) is reported as “significantly reduced” and the “cell death caused by DGAT1 inhibition (rescue)” value (GBM cells) is reported as “significantly reduced”.
In the case of `O=C(O)C[C@H]1CC[C@H](c2ccc(-c3ccc(Nc4ccc(C(F)(F)F)nc4)cn3)cc2)CC1` [Pradigastat], the “liver cancer cell death” value (liver cancer cells; [1]) is reported as “effective to kill liver cancer cells” and the “liver cancer cell death” value (liver cancer cells; each single inhibitor) is reported as “no ability to induce liver cancer cell death”.

Reference: US20240148679A1, “METHODS AND COMPOSITIONS RELATED TO TREATMENT AND PREVENTION OF CANCER BY INHIBITION OF DGAT1 AND DGAT2” (Ohio State Innovation Foundation, priority 2019, published 2024)
